Measurements published in patent US11912668B2, “GCN2 and perk kinase inhibitors and methods of use thereof” (Deciphera Pharmaceuticals, LLC, priority 2020, dated 2024).

Experiments:
GCN2 kinase = GCN2 kinase (Homo sapiens (Human), UniProt Q9P2K8); assay: Biochemical assay for GCN2 (TR-FRET kinase activity assay); conditions: 1 mM ATP, 3-hour incubation
Protocol: Activity of GCN2 kinase was determined using a TR-FRET kinase activity assay (e.g. Riddle et al. Analytical Biochemistry (2006) 356(1) 108-116). Assays were conducted in 384-well plates (13 μL assay volume) using 2 nM GCN2 (Carna Biosciences), 130 nM GFP-EIf2α (Invitrogen), 0.2 mg/mL E. coli tRNA (sigma) and 1 mM ATP in kinase buffer (Invitrogen). Inhibition of GCN2 was measured by adding serial diluted test compound (final assay concentration of 0.5% DMSO) followed by a 3-hour incubation. Tb-peIF2α (pSer52) antibody (Invitrogen) (2 nM final assay concentration) in kinase buffer containing ETDA (final assay concentration of 20 mM) was added. After a 60 min incubation at room temperature, TR-FRET was monitored using an excitation wavelength of 340 nm and emission wavelengths of 490 nm and 520 nm. The emission ratio (520/490) at each compound concentration of was converted to percent inhibition using controls (i.e. reaction with no test compound and reaction with a known inhibitor) and IC50 values were calculated by fitting a four-parameter sigmoidal curve to the data using Prism (GraphPad software).

CCRF-CEM leukemia cells = assay: CCRF-CEM ASNase cell proliferation assay, phenotypic assay for cellular inhibition of GCN2; type: cell-based; conditions: Homo sapiens; ASNase treated CCRF-CEM cells, 1 mU/mL ASNase, 72 h
Protocol: CCRF-CEM leukemia cells (catalog #CCL-116) were obtained from the American Type Culture Collect (ATTC, Manassas, VA). Cells were grown in RPMI-1640 medium supplemented with 10% heat-inactivated fetal bovine serum (Invitrogen, Carlsbad, CA) and 1% Penicillin/Streptomycin/L-Glutamine at 37° C., 5% CO2, and 95% humidity. Cells were expanded until reaching one million cells per mL at which time they are subcultured or harvested for assay use. Ten thousand cells per well in 200 μL RPMI-1640 supplemented with 10% heat-inactivated fetal bovine serum and 1% Penicillin/Streptomycin were dispensed into a 96-well black clear bottom plate. A serial dilution of test compound and 1 mU/mL ASNase was added in triplicate and plates were incubated for 72 h at 37° C., 5% CO2, and 95% humidity. At the end of the incubation, 40 μL of a […] solution of resazurin (Sigma, St. Louis, MO) in PBS was added to each well of the plate and plates were incubated for an additional 6 h at 37° C., 5% CO2, and 95% humidity. Plates were read on a Synergy2 or equivalent reader (Biotek, Winooski VT) using an excitation of 540 nm and an emission of 600 nm. Data was analyzed using GraphPad Prism software (GraphPad, San Diego, CA) to calculate IC50 values.

[1] = system: ATF4 in CCRF-CEM leukemia cells (PERK); assay: CCRF-CEM TG ATF4 ELISA, phenotypic assay for cellular inhibition of PERK preactivated by thapsigargin; type: cell-based; conditions: Homo sapiens; Thapsigargin (1 μM) stimulated CCRF-CEM cells
Protocol: CCRF-CEM leukemia cells (catalog #CCL-116) were obtained from the American Type Culture Collection (ATTC, Manassas, VA). Briefly, cells were grown in RPMI-1640 medium supplemented with 10% heat-inactivated fetal bovine serum (Invitrogen, Carlsbad, CA) and 1% Penicillin/Streptomycin/L-Glutamine at 37° C., 5% CO2, and 95% humidity. Cells were expanded until reaching one million cells per mL at which time they were subcultured or harvested for assay use. One million five hundred thousand cells per well in 1 mL complete growth medium were dispensed into 12-well plates and incubated overnight. A serial dilution of test compound was added and cells were incubated at 37° C., 5% CO2, and 95% for three hours, then 1 μM thapsigargin was added and cells were incubated for an additional hour at 37° C., 5% CO2, and 95%. Cells were lysed then ATF4 levels were measured using an ELISA assay (Proteintech, Rosemont, IL). Absorbance was measured at 450 nm and 544 nM using a Synergy2 or equivalent reader (Biotek, Winooski VT). Data was analyzed using PRISM software (Graphpad, San Diego, CA) to calculate IC50 values.

PERK kinase = PERK kinase (Homo sapiens (Human), UniProt Q9NZJ5); assay: Biochemical assay for PERK (coupled pyruvate kinase/lactate dehydrogenase assay); conditions: 1 mM ATP, rate from 2-3 h time frame
Protocol: Activity of PERK kinase was determined spectroscopically using a coupled pyruvate kinase/lactate dehydrogenase assay that continuously monitors the ATP hydrolysis-dependent oxidation of NADH (e.g., Schindler et al. Science (2000) 289: 1938-1942). Assays were conducted in 384-well plates (100 μL final volume) using 10 nM PERK (from Beryllium), 0.25 mg/mL Myelin Basic Protein substrate, 1.5 units pyruvate kinase, 2.1 units lactate dehydrogenase, 1 mM phosphoenol pyruvate, 0.28 mM NADH and 1 mM ATP in assay buffer (100 mM Tris, pH 7.5, 15 mM MgCl2, 0.5 mM DTT, 0.004% (w/v) BSA, and 0.004% Triton X-100). Inhibition of PERK was measured by adding serial diluted test compound (final assay concentration of 1% DMSO). A decrease in absorption at 340 nm was monitored continuously for 6 hours at 30° C. on a multi-mode microplate reader (BioTek). The reaction rate was calculated using the 2-3 h time frame. The reaction rate at each concentration of compound was converted to percent inhibition using controls (i.e. reaction with no test compound and reaction with a known inhibitor) and IC50 values were calculated using software routines in Prism (GraphPad software).

Sequence of GCN2 kinase (Q9P2K8 whole entry): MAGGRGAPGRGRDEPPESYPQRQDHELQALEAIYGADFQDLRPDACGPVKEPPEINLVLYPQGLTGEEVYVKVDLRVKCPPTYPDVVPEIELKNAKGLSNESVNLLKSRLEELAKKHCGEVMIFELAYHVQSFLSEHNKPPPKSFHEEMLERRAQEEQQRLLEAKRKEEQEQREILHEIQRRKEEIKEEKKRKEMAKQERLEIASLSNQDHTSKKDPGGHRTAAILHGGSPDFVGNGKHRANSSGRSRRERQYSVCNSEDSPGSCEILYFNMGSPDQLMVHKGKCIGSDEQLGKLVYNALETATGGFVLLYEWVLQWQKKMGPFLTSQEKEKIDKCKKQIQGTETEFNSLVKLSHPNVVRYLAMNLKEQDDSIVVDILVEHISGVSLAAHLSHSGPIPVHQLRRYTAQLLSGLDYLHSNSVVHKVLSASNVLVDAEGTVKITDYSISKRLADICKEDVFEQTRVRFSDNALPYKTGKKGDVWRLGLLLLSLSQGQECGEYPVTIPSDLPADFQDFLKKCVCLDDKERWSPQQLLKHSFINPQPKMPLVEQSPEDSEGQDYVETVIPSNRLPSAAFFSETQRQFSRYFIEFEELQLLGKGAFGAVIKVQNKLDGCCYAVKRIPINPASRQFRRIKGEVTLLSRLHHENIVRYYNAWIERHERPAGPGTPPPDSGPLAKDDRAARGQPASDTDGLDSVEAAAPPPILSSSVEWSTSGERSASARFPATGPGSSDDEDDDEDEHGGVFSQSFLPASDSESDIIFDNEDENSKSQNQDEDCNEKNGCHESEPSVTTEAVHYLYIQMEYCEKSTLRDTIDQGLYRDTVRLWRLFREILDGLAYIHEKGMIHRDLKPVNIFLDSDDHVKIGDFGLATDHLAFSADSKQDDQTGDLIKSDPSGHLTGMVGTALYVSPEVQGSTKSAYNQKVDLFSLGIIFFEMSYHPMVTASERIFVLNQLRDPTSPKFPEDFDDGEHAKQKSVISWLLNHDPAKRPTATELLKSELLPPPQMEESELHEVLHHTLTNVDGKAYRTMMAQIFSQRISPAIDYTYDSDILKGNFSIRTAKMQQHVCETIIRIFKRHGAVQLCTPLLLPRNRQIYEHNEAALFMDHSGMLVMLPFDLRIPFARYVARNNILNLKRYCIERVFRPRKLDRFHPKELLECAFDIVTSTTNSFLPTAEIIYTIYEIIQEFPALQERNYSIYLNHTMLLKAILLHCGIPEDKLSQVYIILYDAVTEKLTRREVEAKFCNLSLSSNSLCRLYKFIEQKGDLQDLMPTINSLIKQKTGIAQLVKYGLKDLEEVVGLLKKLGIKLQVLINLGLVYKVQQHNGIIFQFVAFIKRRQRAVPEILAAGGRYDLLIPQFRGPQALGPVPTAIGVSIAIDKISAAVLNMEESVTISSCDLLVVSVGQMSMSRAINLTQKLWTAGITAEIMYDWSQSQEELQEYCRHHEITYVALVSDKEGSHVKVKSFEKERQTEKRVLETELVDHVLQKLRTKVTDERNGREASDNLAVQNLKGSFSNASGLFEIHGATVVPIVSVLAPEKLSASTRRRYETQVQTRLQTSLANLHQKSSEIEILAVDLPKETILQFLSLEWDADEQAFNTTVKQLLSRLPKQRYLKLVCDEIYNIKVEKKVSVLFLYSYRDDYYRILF
Sequence of PERK kinase (Q9NZJ5 other isoform, or with tags, fused parts or gaps): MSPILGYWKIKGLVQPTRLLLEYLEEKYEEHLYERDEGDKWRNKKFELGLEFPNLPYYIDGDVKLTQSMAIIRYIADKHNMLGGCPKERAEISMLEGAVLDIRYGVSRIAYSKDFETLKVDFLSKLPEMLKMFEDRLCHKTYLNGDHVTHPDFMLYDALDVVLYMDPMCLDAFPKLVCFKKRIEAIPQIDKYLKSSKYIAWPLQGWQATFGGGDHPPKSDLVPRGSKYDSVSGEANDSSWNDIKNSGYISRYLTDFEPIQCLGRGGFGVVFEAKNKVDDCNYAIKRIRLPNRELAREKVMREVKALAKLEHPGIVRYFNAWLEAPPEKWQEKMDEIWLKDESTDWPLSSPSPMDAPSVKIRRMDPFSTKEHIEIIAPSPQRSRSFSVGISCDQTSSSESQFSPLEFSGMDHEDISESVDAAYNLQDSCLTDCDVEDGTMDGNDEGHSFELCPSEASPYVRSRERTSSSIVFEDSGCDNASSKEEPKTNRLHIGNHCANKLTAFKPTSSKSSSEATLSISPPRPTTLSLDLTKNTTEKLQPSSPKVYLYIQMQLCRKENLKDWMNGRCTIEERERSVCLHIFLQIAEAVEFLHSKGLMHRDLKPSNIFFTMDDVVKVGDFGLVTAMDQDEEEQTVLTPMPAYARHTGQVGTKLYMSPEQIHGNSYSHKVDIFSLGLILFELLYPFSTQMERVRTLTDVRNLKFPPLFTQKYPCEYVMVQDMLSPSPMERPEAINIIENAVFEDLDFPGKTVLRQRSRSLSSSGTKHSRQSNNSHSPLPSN

| SMILES | IC50 (GCN2 kinase) | IC50 (CCRF-CEM leukemia cells) | IC50 [1] | IC50 (PERK kinase) |
| --- | --- | --- | --- | --- |
| COc1nc2nc(N)ncc2cc1-c1cccc(NS(=O)(=O)c2cc(Cl)cnc2OC)c1F [Example 165] | ≤ 100 nM | ≤ 100 nM | 1000 to 10000 nM | ≤ 100 nM |
| CNc1ncc2cc(-c3cccc(NS(=O)(=O)c4cc(F)cc(CO)c4F)c3F)c(NC)nc2n1 [Example 178] | ≤ 100 nM | ≤ 100 nM | 1000 to 10000 nM | 100 to 500 nM |
| CNc1nc2nc(NC(C)=O)ncc2cc1-c1cc(F)cc(NS(=O)(=O)c2cc(Cl)cnc2OC)c1 [Example 164] | ≤ 100 nM | 100 to 500 nM | 1000 to 10000 nM | 100 to 500 nM |
| COc1cc2nc(N)ncc2cc1-c1cccc(NS(=O)(=O)c2cc(Cl)cc(CO)c2Cl)c1F [Example 167] | ≤ 100 nM | ≤ 100 nM | ≤ 100 nM | ≤ 100 nM |
| CNc1ncc2cc(-c3cccc(NS(=O)(=O)c4cc(OC)ccc4Cl)c3F)c(NC)nc2n1 [Example 168] | ≤ 100 nM | 100 to 500 nM | 1000 to 10000 nM | ≤ 100 nM |
| CNc1cnc(OC)c(S(=O)(=O)Nc2cccc(-c3cc4cnc(NC)cc4nc3C)c2F)c1 [Example 162] | ≤ 100 nM | ≤ 100 nM | – | 100 to 500 nM |
| CNc1cc2ncc(-c3cccc(NS(=O)(=O)c4cc(Cl)cc(CO)c4Cl)c3F)cc2cn1 [Example 4, 2,5-dichloro-N-(2-fluoro-3-(7-(methylamino)-1,6-naphthyridin-3-yl)phenyl)-3-(hydroxymethyl)benzenesulfonamide] | ≤ 100 nM | 1000 to 10000 nM | ≤ 100 nM | ≤ 100 nM |
| CNc1ncc2cc(-c3cc(NS(=O)(=O)c4cc(Cl)cnc4OC)ccc3C(F)(F)F)c(C)nc2n1 [Example 80] | 500 to 1000 nM | – | – | 1000 to 10000 nM |
| CNc1ncc2cc(-c3cc(NS(=O)(=O)c4cc(Cl)cnc4OC)c(C)cc3F)c(C)nc2n1 [Example 21] | 1000 to 10000 nM | – | – | 1000 to 10000 nM |
| CNCCNc1nc2nc(NC)ncc2cc1-c1cccc(NS(=O)(=O)c2cc(Cl)cnc2OC)c1F [Example 101] | 100 to 500 nM | – | – | 1000 to 10000 nM |
| CNc1ncc2cc(-c3cc(NS(=O)(=O)c4cccnc4)c(F)cc3C)c(C)nc2n1 [Example 1, N-(2-fluoro-4-methyl-5-(7-methyl-2-(methylamino)pyrido[2,3-d]pyrimidin-6-yl)phenyl)pyridine-3-sulfonamide] | 1000 to 10000 nM | – | – | 1000 to 10000 nM |
| CNc1ncc2cc(-c3cccc(NS(=O)(=O)c4cc(Cl)cnc4OC)c3)c(C)nc2n1 [Example 47] | ≤ 100 nM | – | – | 100 to 500 nM |
| CNc1ncc2cc(-c3cc(NS(=O)(=O)c4cc(Cl)cnc4OC)ccc3OC)c(C)nc2n1 [Example 82] | 1000 to 10000 nM | – | – | 1000 to 10000 nM |
| CNc1ncc2cc(-c3cc(Cl)cc(NS(=O)(=O)c4cc(Cl)cnc4OC)c3)c(NC)nc2n1 [Example 94] | 500 to 1000 nM | – | – | 1000 to 10000 nM |
| CNc1ncc2cc(-c3cc(NS(=O)(=O)c4cc(Cl)cnc4OC)c(F)cc3F)c(NC)nc2n1 [Example 13] | 500 to 1000 nM | – | – | 1000 to 10000 nM |
| CNc1ncc2cc(-c3cc(NS(=O)(=O)c4cc(Cl)cnc4OC)cc(F)c3F)ccc2n1 [Example 55] | 500 to 1000 nM | – | – | 100 to 500 nM |
| CNc1ncc2cc(-c3cccc(NS(=O)(=O)c4ccc(Br)c(C(F)(F)F)c4)c3F)ccc2n1 [Example 71] | 1000 to 10000 nM | – | – | 1000 to 10000 nM |
| CNc1ncc2cc(-c3cccc(NS(=O)(=O)c4cc(Cl)cnc4OC)c3F)c(NCC3COC3)nc2n1 [Example 99] | 100 to 500 nM | – | – | 100 to 500 nM |
| CNc1ncc2cc(-c3cccc(NS(=O)(=O)c4cc(Cl)cnc4OC)c3F)c(OC)cc2n1 [Example 159] | ≤ 100 nM | ≤ 100 nM | 500 to 1000 nM | ≤ 100 nM |

| SMILES | IC50 (GCN2 kinase) | IC50 (CCRF-CEM leukemia cells) | IC50 [1] | IC50 (PERK kinase) |
| --- | --- | --- | --- | --- |
| CNc1ncc2cc(-c3cccc(NS(=O)(=O)c4ncccc4OC)c3F)c(NC)nc2n1 [Example 166] | 1000 to 10000 nM | – | – | 1000 to 10000 nM |
| CNc1nc2nc(N)ncc2cc1-c1cc(Cl)cc(NS(=O)(=O)c2cc(Cl)cnc2OC)c1 [Example 104] | 1000 to 10000 nM | – | – | 1000 to 10000 nM |
| COc1ncc(Cl)cc1S(=O)(=O)Nc1ccc(C)c(-c2ccc3cc(N)ncc3c2)c1 [Example 28] | 1000 to 10000 nM | – | – | 100 to 500 nM |
| CNc1ncc2cc(-c3cc(F)cc(NS(=O)(=O)c4cc(Cl)cnc4OC)c3)c(NC[C@@H](C)OC)nc2n1 [Example 107] | 500 to 1000 nM | – | – | 1000 to 10000 nM |
| CNc1cc2nc(C)c(-c3cc(NS(=O)(=O)c4cc(Cl)cnc4OC)c(F)cc3Br)cc2cn1 [Example 18] | 500 to 1000 nM | – | – | 1000 to 10000 nM |
| CNc1ncc2cc(-c3ccc(F)c(NS(=O)(=O)c4cc(Cl)cnc4OC)c3)c(C)nc2n1 [Example 20] | 1000 to 10000 nM | – | – | 1000 to 10000 nM |
| CNc1ncc2cc(-c3cc(NS(=O)(=O)c4cc(Cl)cnc4OC)ccc3OC)ccc2n1 [Example 81] | 1000 to 10000 nM | – | – | 1000 to 10000 nM |
| CNc1cc2nc(C)c(-c3cc(NS(=O)(=O)c4cc(Cl)cnc4OC)ccc3C)cc2cn1 [Example 32] | ≤ 100 nM | – | – | ≤ 100 nM |
| CNc1ncc2cc(-c3cc(NS(=O)(=O)c4cc(Cl)cnc4OC)c(F)cc3C)c(NC)nc2n1 [Example 10] | 500 to 1000 nM | – | – | 1000 to 10000 nM |
| CNc1ncc2cc(-c3cccc(NS(=O)(=O)c4ccc(Cl)nc4OC)c3F)c(NC)nc2n1 [Example 142] | 100 to 500 nM | – | – | 100 to 500 nM |
| CNc1ncc2cc(-c3cc(NS(=O)(=O)c4cc(Cl)cnc4OC)c(F)cc3F)c(C)nc2n1 [Example 12] | 500 to 1000 nM | – | – | 1000 to 10000 nM |
| CNc1cc2nc(N)c(-c3cccc(NS(=O)(=O)c4cc(Cl)cc(CO)c4Cl)c3F)cc2cn1 [Example 171] | – | ≤ 100 nM | ≤ 100 nM | – |
| CNc1ncc2cc(-c3cccc(NS(=O)(=O)c4ccc(OC)c(Cl)c4)c3F)ccc2n1 [Example 70] | 1000 to 10000 nM | – | – | 100 to 500 nM |
| CNc1ncc2cc(-c3ccc(F)c(NS(=O)(=O)c4cc(Cl)cnc4OC)c3F)c(C)nc2n1 [Example 46] | 100 to 500 nM | – | – | 1000 to 10000 nM |
| CNC(=O)c1cc(Cl)cc(S(=O)(=O)Nc2cccc(-c3cc4cnc(NC)nc4nc3NC)c2F)c1Cl [Example 170] | 1000 to 10000 nM | – | – | 1000 to 10000 nM |
| CNc1ncc2cc(-c3cccc(NS(=O)(=O)c4cc(Cl)cnc4OC)c3F)c(OCCOC)nc2n1 [Example 147] | ≤ 100 nM | – | – | 100 to 500 nM |
| CNc1ncc2cc(-c3cccc(NS(=O)(=O)c4cc(C5CC5)cnc4OC)c3F)c(NC)nc2n1 [Example 153] | ≤ 100 nM | – | – | 100 to 500 nM |
| CNc1ncc2cc(-c3cccc(NS(=O)(=O)c4cc(Cl)cnc4OC)c3F)c(NC3COC3)nc2n1 [Example 98] | 100 to 500 nM | – | – | 500 to 1000 nM |
